According to PubChem BioAssay (NCI):
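96-well plates; 48 h exposure; 5 concentrations. Endpoints by linear interpolation between flanking doses. Not reached: highest tested concentration assigned. At the GI50, growth is halved. Definition used: TGI = concentration required for complete inhibition of growth.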

Legend:
Assay in all cases: growth of human tumour cells (NCI), 48 h
SF-295 CNS = tested on: SF-295 CNS
UACC-257 melanoma = tested on: UACC-257 melanoma
CCRF-CEM leukemia = tested on: CCRF-CEM leukemia
M14 melanoma = tested on: M14 melanoma
SF-268 CNS = tested on: SF-268 CNS
HCT-15 colon = tested on: HCT-15 colon
UO-31 renal = tested on: UO-31 renal
SK-MEL-5 melanoma = tested on: SK-MEL-5 melanoma
K-562 leukemia = tested on: K-562 leukemia
IGROV1 ovarian = tested on: IGROV1 ovarian

| Compound | TGI (SF-295 CNS) [µM] | TGI (UACC-257 melanoma) [µM] | TGI (CCRF-CEM leukemia) [µM] | TGI (M14 melanoma) [µM] | TGI (SF-268 CNS) [µM] | TGI (HCT-15 colon) [µM] | TGI (UO-31 renal) [µM] | TGI (SK-MEL-5 melanoma) [µM] | TGI (K-562 leukemia) [µM] | TGI (IGROV1 ovarian) [µM] | GI50 (SF-295 CNS) [µM] | GI50 (UACC-257 melanoma) [µM] | GI50 (CCRF-CEM leukemia) [µM] | GI50 (M14 melanoma) [µM] | GI50 (SF-268 CNS) [µM] | GI50 (IGROV1 ovarian) [µM] | GI50 (HCT-15 colon) [µM] | GI50 (UO-31 renal) [µM] | GI50 (SK-MEL-5 melanoma) [µM] | GI50 (K-562 leukemia) [µM] |
| --- | --- | --- | --- | --- | --- | --- | --- | --- | --- | --- | --- | --- | --- | --- | --- | --- | --- | --- | --- | --- |
| N#Cc1c(Cl)c2cc([N+](=O)[O-])ccc2n2c1nc1ccccc12 | 62.4 | 56 | 4.27 | 4.41 | 13.6 | 2.3 | 6.82 | 44.4 | > 36.7 |  |  |  |  |  |  |  |  |  |  |  |
| CCOC(=O)C(O)(NC(=O)c1ccc(F)cc1)C(F)(F)F (configuration not stated) | > 100 | > 100 | > 100 | > 100 | > 100 | > 100 | > 100 | > 100 | > 100 | > 100 |  |  |  |  |  |  |  |  |  |  |
| O=S1(=O)N(CCNc2nccc(-c3c(-c4cccc(O)c4)nc4sccn34)n2)CCN1Cc1ccccc1 | 20.3 | 43.1 | 30.9 | 27.7 | > 50 | 20.9 | 39.3 | 9.79 | > 50 | 43.6 | 7.57 | 0.996 | 2.26 | 0.461 | 15.3 | 6.65 | 6.05 | 3.01 | 3.04 | 3.44 |
| NCCCCC(N)C(=O)NCCNc1ccc(NCCNC(=O)C(N)CCCCN)c2c1C(=O)c1ccccc1C2=O (configuration not stated) | > 100 | > 100 | > 100 | > 100 | > 100 | > 100 | > 100 | > 100 | > 100 | > 100 |  |  |  |  |  |  |  |  |  |  |
| C=CC1(C)CCC2=C(CCC3C(C)(C(=O)OC)CCCC23C)C1=O (configuration not stated) | 72.5 | 55.9 | 68 | 38.7 | 34.9 | 42.7 | 42.8 | 30.3 | > 100 | 37.1 |  |  |  |  |  |  |  |  |  |  |
| O=C(N/N=C\c1cccc(O)c1)c1ccncc1 | > 100 | > 100 |  | > 100 | > 100 | > 100 | > 100 |  | > 100 | > 100 |  |  |  |  |  |  |  |  |  |  |
| O=C1CCCCC2N(C(c3ccccc3)c3ccccc3)CC[C@@]12c1ccccc1 (mixture of isomers) | > 10 | > 10 | > 10 | > 10 | > 10 | > 10 | > 10 | > 10 | > 10 | > 10 |  |  |  |  |  |  |  |  |  |  |
| C=C(C)C(=O)OC1CCC2(C)C(CCC3C2CCC2(C)C(c4ccc(=O)oc4)CC4OC432)C1 (configuration not stated) | 23.1 | 17.2 | 15.3 |  | 31.9 | 32 | 35.8 | 19.1 | 32.9 | 20.5 |  |  |  |  |  |  |  |  |  |  |
| O=C(O)Cc1cc(O)c(CC(=O)O)cc1O | > 100 | > 100 |  | > 100 | > 100 | > 100 | > 100 | > 100 | > 100 | > 100 |  |  |  |  |  |  |  |  |  |  |
| CCN(CC)CC(=O)O[C@]1(CC)C(=O)OCc2c1cc1n(c2=O)Cc2cc3ccccc3nc2-1 | 1.08 | 1.05 |  | 0.318 |  | 3.93 | 0.182 | 0.171 | 38.3 | 1.04 |  |  |  |  |  |  |  |  |  |  |
| Cc1cc(O)c(C(C)(C)C)cc1Sc1cc(C(C)(C)C)c(O)cc1C | 5.61 | 6.89 | 14.5 |  | 12.9 | 11.8 | 8.25 | 3.02 | 5.4 | 12.5 | 2.32 | 2.28 | 2.95 |  | 3.3 | 2.98 | 2.96 | 2.07 | 1.58 | 1.95 |
| Cc1nc2ccccc2n1C(=O)c1c(F)c(F)c(F)c(F)c1F | > 100 | 39.1 | > 100 | 25.9 | > 100 | 33.9 | 33.9 | 26.9 | > 100 | 44.8 |  |  |  |  |  |  |  |  |  |  |
| Clc1ccccc1/C=C/c1cscn1 |  | > 100 | > 100 | > 100 | > 100 | > 100 | > 100 |  | > 100 |  |  |  |  |  |  |  |  |  |  |  |
| CCOC(=O)CN=C1NNS(=O)(=O)c2ccccc21 | > 100 | > 100 | > 100 | > 100 | > 100 | > 100 | > 100 | > 100 | > 100 | > 100 |  |  |  |  |  |  |  |  |  |  |
| Cc1ccc2c(c1)C1(C)OC(C=CC1=O)O2 (configuration not stated) | 11.9 | 3.45 | 0.569 | 1.13 | 10.3 | 0.772 | 2.36 | 2.79 | 0.902 | 8.88 |  |  |  |  |  |  |  |  |  |  |
| Cn1c(=O)c2[nH]c(CCCCC(=O)O)nc2n(C)c1=O | > 100 | > 100 | > 100 | > 100 | > 100 | > 100 | > 100 | > 100 |  | > 100 |  |  |  |  |  |  |  |  |  |  |
